Test results from ChEMBL document CHEMBL5724696, “Autophagy assay results for EUbOPEN Chemogenomics Library” (2024).

How the values were obtained:
Type in all cases: functional, Homo sapiens
[1] = test system: U2OS; assay: (§1) Here: values are normalized to the negative (DMSO; defined as 0% autophagy induction) and positive (250nM Torin1; mTOR inhibitor; defined as maximal inducer of autophagy = 100%) control compounds and represented as % of autophagy induction. […] The impact of autophagy induction on cells is complex and depends on the affected target. As such, the magnitude of a phenotype may not be equally mirrored in the %-value of autophagy induction and vice versa. The dynamics of the induction may indicate the mode of activation: e.g. activation via phosphorylation or a signaling cascade may occur fast, while activation via transcription factors may take considerably longer. […] Of note, treatment concentrations may be sub-optimal for specific compounds, leading to false negative annotations.; settings: Culturing Media DMEM, 1 % Penicillin/Streptomycin, 10% Fetal bovin serum Add-On: No, Screening Media Control DMEM, Screening Media Samples DMEM
[2] = test system: U2OS; assay: as §1; settings: Culturing Media DMEM, 1 % Penicillin/Streptomycin, 10% Fetal bovin serum Add-On: No, Screening Media Control DMEM, Screening Media Samples DMEM; remark: listed apart in the source
[3] = test system: TERT-RPE1; assay: as §1; settings: Culturing Media DMEM/F12 (1:1), 1 % Penicillin/Streptomycin, 10% Fetal bovin serum Add-On: No, Screening Media Control DMEM/F12 (1:1), Screening Media Samples DMEM/F12 (1:1)
[4] = Compound Concentration 0.5 uM, Timepoint 12 hours
[5] = Compound Concentration 0.5 uM, Timepoint 24 hours
[6] = Compound Concentration 0.5 uM, Timepoint 36 hours
[7] = Compound Concentration 0.5 uM, Timepoint 60 hours
[8] = Compound Concentration 2 uM, Timepoint 12 hours
[9] = Compound Concentration 2 uM, Timepoint 24 hours
[10] = Compound Concentration 2 uM, Timepoint 36 hours
[11] = Compound Concentration 2 uM, Timepoint 60 hours
[12] = Compound Concentration 10 uM, Timepoint 12 hours
[13] = Compound Concentration 10 uM, Timepoint 24 hours
[14] = Compound Concentration 10 uM, Timepoint 36 hours
[15] = Compound Concentration 10 uM, Timepoint 60 hours

| Compound | autophagy induction [1, 4] | autophagy induction [1, 5] | autophagy induction [1, 6] | autophagy induction [1, 7] | autophagy induction [1, 8] | autophagy induction [1, 9] | autophagy induction [1, 10] | autophagy induction [1, 11] | autophagy induction [1, 12] | autophagy induction [1, 13] | autophagy induction [1, 14] | autophagy induction [1, 15] | autophagy induction [2, 4] | autophagy induction [2, 5] | autophagy induction [2, 6] | autophagy induction [2, 7] | autophagy induction [2, 8] | autophagy induction [2, 9] | autophagy induction [2, 10] | autophagy induction [2, 11] | other results |
| --- | --- | --- | --- | --- | --- | --- | --- | --- | --- | --- | --- | --- | --- | --- | --- | --- | --- | --- | --- | --- | --- |
| C[C@]1(C(=O)N(CCCC(=O)O)Cc2cccc(Cl)c2)CCN1C(=O)c1csc2ccccc12 [GLPG-0974] | -10.0746% | -10.8247% | -4.098% | -4.538% | 5.378% | 3.105% | 6.198% | 1.696% | 3.852% | 1.348% | 0.8582% | -7.082% | 2.89% | 1.055% | -0.2915% | 0.8021% | 5.8948% | 0.1613% | -0.9761% | -1.363% | autophagy induction [2, 12]: 4.366%; autophagy induction [2, 13]: 0.7536%; autophagy induction [2, 14]: -0.03596%; autophagy induction [2, 15]: 0.5874%; autophagy induction [3, 4]: -9.58%; autophagy induction [3, 5]: -12.1708%; autophagy induction [3, 6]: -12.5657%; autophagy induction [3, 7]: -12.3909%; autophagy induction [3, 8]: -4.812%; autophagy induction [3, 9]: -8.05%; autophagy induction [3, 10]: -10.5216%; autophagy induction [3, 11]: -11.4009%; autophagy induction [3, 12]: -6.234%; autophagy induction [3, 13]: -7.969%; autophagy induction [3, 14]: -9.743%; autophagy induction [3, 15]: -14.0611% |
| CCc1cc(C(C)=O)c(O)cc1OCCCCCC(C)(C)c1nn[nH]n1 [LY-255283] | 7.95% | 0.1788% | 0.4616% | 2.676% | 6.9255% | 1.248% | 3.296% | 1.486% | -12.1559% | -5.674% | -8.912% | -14.6191% | 3.867% | -0.4862% | -0.9692% | -0.6256% | 7.835% | 0.4992% | -1.36% | 0.1348% | autophagy induction [2, 12]: 10.6288%; autophagy induction [2, 13]: 4.072%; autophagy induction [2, 14]: 1.093%; autophagy induction [2, 15]: 0.5552%; autophagy induction [3, 4]: -9.9842%; autophagy induction [3, 5]: -11.9426%; autophagy induction [3, 6]: -14.7708%; autophagy induction [3, 7]: -17.4457%; autophagy induction [3, 8]: -8.34%; autophagy induction [3, 9]: -9.195%; autophagy induction [3, 10]: -15.7799%; autophagy induction [3, 11]: -19.0275%; autophagy induction [3, 12]: -6.621%; autophagy induction [3, 13]: -4.037%; autophagy induction [3, 14]: -5.452%; autophagy induction [3, 15]: -5.811% |
